# The source made the active and inactive calls.
# How the values were obtained:
# [1] = tested on: INS1; assay: suppression of NO production in INS-1E cells – cell-based, Griess absorbance, dry powder, set 2, dose response (AID 488868); assay type: functional; settings: Rattus norvegicus
# [2] = tested on: INS1; assay: INS-1E mitochondrial potential loss inhibitors – cell-based, JC-1 fluorescence, dry powder, set 2, dose response (AID 488867); assay type: functional; settings: Rattus norvegicus
# [3] = tested on: INS1; assay: beta-cell survival under cytokine stress – INS-1E, ATP luminescence, dry powder, dose response (AID 488844); assay type: functional, cell-based; settings: Rattus norvegicus
# [4] = tested on: INS1; assay: suppression of NO production in INS-1E cells – cell-based, Griess absorbance, dry powder, dose response (AID 488866); assay type: functional; settings: Rattus norvegicus
# [5] = tested on: INS1; assay: INS-1E mitochondrial potential rescue under cytokines – cell-based, JC-1 fluorescence ratio, dry powder, dose response (AID 488931); assay type: functional; settings: Rattus norvegicus
# [6] = biological target: T1, Sentrin-specific protease 7 (Homo sapiens, UniProt Q9BQF6); assay: inhibition of human SENP7 cleavage activity – biochemical, luminescence, SAR follow-up (AID 504497); assay type: functional
# T1 sequence (Q9BQF6 whole entry): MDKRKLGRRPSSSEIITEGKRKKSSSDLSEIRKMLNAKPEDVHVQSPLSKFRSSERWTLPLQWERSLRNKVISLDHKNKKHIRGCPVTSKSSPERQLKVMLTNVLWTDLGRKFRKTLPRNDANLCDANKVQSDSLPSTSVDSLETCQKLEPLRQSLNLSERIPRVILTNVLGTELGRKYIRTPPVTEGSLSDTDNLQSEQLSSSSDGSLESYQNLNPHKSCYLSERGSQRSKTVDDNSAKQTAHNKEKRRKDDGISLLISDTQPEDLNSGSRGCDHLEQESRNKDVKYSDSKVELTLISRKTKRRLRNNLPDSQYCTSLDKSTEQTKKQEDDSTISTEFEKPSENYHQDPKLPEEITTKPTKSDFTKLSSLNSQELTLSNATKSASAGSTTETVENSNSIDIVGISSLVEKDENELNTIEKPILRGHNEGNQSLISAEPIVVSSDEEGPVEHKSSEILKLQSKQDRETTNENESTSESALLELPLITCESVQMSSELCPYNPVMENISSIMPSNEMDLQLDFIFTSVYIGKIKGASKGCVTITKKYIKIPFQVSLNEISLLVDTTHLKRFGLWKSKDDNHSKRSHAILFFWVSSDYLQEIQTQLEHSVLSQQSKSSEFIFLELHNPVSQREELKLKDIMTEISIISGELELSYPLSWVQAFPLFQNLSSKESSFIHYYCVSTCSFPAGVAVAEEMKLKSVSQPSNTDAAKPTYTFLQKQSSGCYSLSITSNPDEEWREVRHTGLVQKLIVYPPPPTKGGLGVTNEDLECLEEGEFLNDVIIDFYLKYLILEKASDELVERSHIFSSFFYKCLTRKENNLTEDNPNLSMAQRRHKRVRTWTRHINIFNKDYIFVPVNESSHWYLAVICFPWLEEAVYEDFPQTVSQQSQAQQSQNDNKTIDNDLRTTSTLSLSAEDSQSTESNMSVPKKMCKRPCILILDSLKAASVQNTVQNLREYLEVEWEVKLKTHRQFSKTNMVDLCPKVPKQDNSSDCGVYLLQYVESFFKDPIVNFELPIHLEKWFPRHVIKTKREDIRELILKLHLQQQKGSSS
# [7] = biological target: T1, Sentrin-specific protease 7; assay: inhibition of human SENP7 cleavage activity – biochemical, luminescence, set 2, SAR follow-up (AID 588600); assay type: functional
# [8] = biological target: T2, Caspase-3 (Homo sapiens, UniProt P42574); assay: inhibition of recombinant caspase-3 activity – biochemical, luminescence, set 2, selectivity assay for SENP protease inhibitor project, SAR follow-up (AID 588599); assay type: functional
# T2 sequence (P42574 whole entry): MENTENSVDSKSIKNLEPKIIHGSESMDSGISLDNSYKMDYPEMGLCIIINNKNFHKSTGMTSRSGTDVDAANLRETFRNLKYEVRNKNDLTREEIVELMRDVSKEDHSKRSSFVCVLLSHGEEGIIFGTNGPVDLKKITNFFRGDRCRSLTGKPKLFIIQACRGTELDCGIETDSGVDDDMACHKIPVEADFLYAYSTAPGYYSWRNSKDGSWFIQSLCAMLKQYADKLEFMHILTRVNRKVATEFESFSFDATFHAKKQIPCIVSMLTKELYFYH
# [9] = biological target: T3, Sentrin-specific protease 6 (Homo sapiens, UniProt Q9GZR1); assay: SAR Analysis of small molecule inhibitors of Sentrin-specific protease 6 (SENP6) using a Luminescent assay. [Related pubchem assays (depositor defined):AID2582, AID2599]; assay type: functional
# T3 sequence (Q9GZR1 whole entry): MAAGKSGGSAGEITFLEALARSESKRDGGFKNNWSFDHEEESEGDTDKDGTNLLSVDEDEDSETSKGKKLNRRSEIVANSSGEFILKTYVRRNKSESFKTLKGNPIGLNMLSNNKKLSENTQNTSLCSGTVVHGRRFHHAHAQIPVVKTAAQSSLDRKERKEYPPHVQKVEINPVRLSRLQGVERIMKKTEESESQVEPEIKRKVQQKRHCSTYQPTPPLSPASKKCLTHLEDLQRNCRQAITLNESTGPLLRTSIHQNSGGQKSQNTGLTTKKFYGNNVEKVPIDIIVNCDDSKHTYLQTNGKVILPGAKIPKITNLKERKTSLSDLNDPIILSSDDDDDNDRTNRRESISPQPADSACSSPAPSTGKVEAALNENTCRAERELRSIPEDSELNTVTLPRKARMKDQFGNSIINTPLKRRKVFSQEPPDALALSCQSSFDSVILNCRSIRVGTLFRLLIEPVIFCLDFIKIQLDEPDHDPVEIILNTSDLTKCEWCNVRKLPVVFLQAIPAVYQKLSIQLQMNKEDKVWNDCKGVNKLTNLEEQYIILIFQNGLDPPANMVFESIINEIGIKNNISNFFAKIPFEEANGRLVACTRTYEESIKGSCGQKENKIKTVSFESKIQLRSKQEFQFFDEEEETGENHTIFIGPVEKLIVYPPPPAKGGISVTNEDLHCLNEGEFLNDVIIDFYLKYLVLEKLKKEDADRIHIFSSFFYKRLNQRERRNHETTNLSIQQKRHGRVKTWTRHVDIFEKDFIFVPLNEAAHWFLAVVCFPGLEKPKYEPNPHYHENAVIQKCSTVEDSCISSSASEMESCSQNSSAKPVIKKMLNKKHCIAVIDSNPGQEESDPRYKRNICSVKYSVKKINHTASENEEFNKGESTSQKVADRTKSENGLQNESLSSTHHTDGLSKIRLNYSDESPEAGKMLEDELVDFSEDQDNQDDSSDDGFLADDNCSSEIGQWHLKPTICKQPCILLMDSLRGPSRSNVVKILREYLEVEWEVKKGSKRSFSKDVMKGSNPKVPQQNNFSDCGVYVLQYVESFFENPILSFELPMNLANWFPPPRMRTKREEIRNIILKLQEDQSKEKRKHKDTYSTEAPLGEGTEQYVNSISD
# [10] = biological target: T4, Sentrin-specific protease 8 (Homo sapiens, UniProt Q96LD8); assay: inhibition of human SENP8 cleavage activity – biochemical, luminescence, SAR follow-up (AID 504501); assay type: functional
# T4 sequence (Q96LD8 whole entry): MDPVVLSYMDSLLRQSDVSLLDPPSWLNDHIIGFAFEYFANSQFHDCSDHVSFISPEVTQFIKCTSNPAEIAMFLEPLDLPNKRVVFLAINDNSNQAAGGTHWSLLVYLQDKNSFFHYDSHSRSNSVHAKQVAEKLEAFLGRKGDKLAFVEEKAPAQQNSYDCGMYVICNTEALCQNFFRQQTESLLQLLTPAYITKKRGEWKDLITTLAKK
# [11] = biological target: T4, Sentrin-specific protease 8; assay: inhibition of sentrin protease 8 – biochemical, luminescence, set 2, SAR follow-up (AID 588601); assay type: functional
# [12] = biological target: T3, Sentrin-specific protease 6; assay: inhibition of human SENP6 catalytic domain – biochemical, luminescence, set 2, SAR follow-up (AID 588598); assay type: functional
# [13] = biological target: T2, Caspase-3; assay: SAR Analysis of small molecule inhibitors of Sentrin-specific proteases (SENPs) using a Caspase-3 Selectivity assay. [Related pubchem assays (depositor defined):AID2540, AID2599, AID434973, AID489001]; assay type: functional
# [14] = biological target: Apoptotic protease-activating factor 1 (Homo sapiens, UniProt O14727); assay type: functional
# [15] = biological target: Lysine-specific demethylase 4C (Homo sapiens, UniProt Q9H3R0); assay: inhibition of JMJD2C H3K9me3 demethylation – biochemical, DELFIA europium, cherry-picked samples, dose response (AID 488835); assay type: functional
# [16] = Trypanosoma cruzi growth suppression in host cells – NIH3T3 host cells, beta-gal luminescence, confirmation (AID 2044); assay type: functional, cell-based;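 also: intracellular parasites grown in NIH/3T3 mouse fibroblasts as host cells; luminescent beta-galactosidase reporter signal from transgenic T. cruzi replicating inside host cells; inhibitors lower the luminescence signal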
# [17] = cells; assay type: functional, cell-based
# [18] = tested on: BJ; assay: BJ-TERT-LT-ST fibroblast viability loss – cell-based, RAS-independent, luminescence, dose response (AID 1935); assay type: functional; settings: Homo sapiens;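 also: BJ fibroblasts immortalized with TERT plus LT and ST oncogenes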
# [19] = tested on: BJ; assay: BJ-TERT fibroblast viability loss – cell-based, RAS-independent, luminescence, dose response (AID 1933); assay type: functional; settings: Homo sapiens
# [20] = biological target: Latent membrane protein 1 (Human herpesvirus 4 (strain B95-8), UniProt P03230); assay: LMP1 TES1 pathway selectivity over dsRED control – imaging, HEK293T, dual-color eGFP/dsRED, cherry-picks, selectivity assay for LMP1 NF-kB inhibitor project, dose response (AID 588398); assay type: functional, cell-based
# [21] = Luminescence-based counterscreen assay for KLF5 inhibitors: dose response cell-based high throughput screening assay to identify cytotoxic compounds using the IEC-6 intestinal epithelial cell line. [Related pubchem assays: 1700 (Primary screen.), 1834 (Confirmation screen.), 1858 (Summary AID.), 1905 (Counterscreen.)]; assay type: functional
# [22] = biological target: T5, Serine/threonine-protein phosphatase (Candida dubliniensis (strain CD36 / CBS 7987 / NCPF 3949 / NRRLY-17841) (Yeast), UniProt B9W6M3); assay: blockers of CaCl2-induced CDRE-lacZ signaling – S. cerevisiae, luminescence, secondary, dose response (AID 2388); assay type: functional, cell-based;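 also: yeast reporter cells carrying a calcineurin-responsive lacZ construct stimulated with calcium chloride; luminescent beta-galactosidase reporter signal in whole cells rather than isolated phosphatase activity; potency for inhibition where a drop in reporter signal means calcineurin blockade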
# T5 sequence (B9W6M3 whole entry): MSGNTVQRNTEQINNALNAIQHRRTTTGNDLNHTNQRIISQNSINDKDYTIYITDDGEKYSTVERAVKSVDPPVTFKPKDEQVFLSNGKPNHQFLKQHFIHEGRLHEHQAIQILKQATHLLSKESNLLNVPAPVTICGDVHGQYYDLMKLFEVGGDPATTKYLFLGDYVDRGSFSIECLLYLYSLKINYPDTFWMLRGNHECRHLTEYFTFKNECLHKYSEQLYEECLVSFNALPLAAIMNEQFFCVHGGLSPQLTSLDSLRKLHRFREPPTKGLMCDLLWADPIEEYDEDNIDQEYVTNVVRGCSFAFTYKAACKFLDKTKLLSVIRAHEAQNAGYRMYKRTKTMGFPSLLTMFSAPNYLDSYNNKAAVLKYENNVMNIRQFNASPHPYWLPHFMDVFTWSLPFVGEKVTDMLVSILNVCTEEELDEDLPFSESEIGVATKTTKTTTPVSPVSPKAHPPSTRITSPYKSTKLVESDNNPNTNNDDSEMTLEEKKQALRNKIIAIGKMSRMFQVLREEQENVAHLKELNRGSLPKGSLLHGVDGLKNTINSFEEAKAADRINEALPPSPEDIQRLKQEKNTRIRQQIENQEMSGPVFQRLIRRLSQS
# [23] = NIH3T3 cell viability loss – ATP luminescence, mouse fibroblasts, counter-screen, dose response (AID 2010); assay type: functional, cell-based;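 also: cells exposed to compound for about 90 hours before reading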
# [24] = tested on: BJ; assay: cells; assay type: functional, cell-based; settings: Homo sapiens
# [25] = biological target: ATP-dependent molecular chaperone HSP82 (Candida albicans (strain WO-1) (Yeast), UniProt C4YTQ8); assay: steroid-induced GRE reporter decrease in yeast – S. cerevisiae, luminescence, Hsp90 inhibitor project, dose response (AID 2400); assay type: functional, cell-based;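 also: beta-galactosidase luminescence from glucocorticoid response element reporter as proxy for Hsp90 function; inhibitor potency where signal loss means Hsp90 inhibition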
# [26] = tested on: HEK293; assay: EBV LMP1 TES2 canonical NF-kB signalling blockers – cell-based, HEK293, luciferase, cherry-pick, dose response (AID 588343); assay type: functional; settings: Homo sapiens
# [27] = NIH-3T3 fibroblast cytotoxicity, dose response, cytotoxicity control, cell-based, fluorescence, Alamar Blue, secondary assay (AID 2327); assay type: functional;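 also: NIH-3T3 mouse fibroblasts cultured with fluconazole at 8 µg/mL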
# [28] = DRD fibroblast viability loss – cell-based, non-viral oncogenic, luminescence, dose response (AID 1934); assay type: functional; settings: Homo sapiens
# [29] = cells; assay type: functional, cell-based; remark: listed apart in the source
# [30] = fluconazole-exposed Candida albicans growth modulators – fluorescence, retest, confirmation (AID 2467); assay type: functional, cell-based
# Sequence of ATP-dependent molecular chaperone HSP82 (C4YTQ8 whole entry): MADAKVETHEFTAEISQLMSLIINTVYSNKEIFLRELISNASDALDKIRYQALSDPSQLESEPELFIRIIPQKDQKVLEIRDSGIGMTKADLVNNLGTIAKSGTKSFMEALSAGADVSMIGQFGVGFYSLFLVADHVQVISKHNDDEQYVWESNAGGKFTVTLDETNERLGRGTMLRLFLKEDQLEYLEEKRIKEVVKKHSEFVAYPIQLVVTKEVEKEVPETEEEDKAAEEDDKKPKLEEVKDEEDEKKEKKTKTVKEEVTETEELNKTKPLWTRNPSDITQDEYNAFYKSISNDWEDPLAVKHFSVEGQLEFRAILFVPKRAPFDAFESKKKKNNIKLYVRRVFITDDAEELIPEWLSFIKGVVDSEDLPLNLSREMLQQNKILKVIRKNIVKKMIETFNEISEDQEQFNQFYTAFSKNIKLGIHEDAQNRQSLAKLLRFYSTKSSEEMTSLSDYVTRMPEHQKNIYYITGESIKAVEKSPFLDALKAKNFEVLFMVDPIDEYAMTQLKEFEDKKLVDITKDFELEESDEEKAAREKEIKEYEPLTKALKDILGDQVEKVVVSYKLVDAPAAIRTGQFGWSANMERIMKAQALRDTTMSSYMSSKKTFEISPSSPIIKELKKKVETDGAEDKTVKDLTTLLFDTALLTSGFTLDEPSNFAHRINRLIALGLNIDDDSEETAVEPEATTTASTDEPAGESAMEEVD
# Sequence of Apoptotic protease-activating factor 1 (O14727 whole entry): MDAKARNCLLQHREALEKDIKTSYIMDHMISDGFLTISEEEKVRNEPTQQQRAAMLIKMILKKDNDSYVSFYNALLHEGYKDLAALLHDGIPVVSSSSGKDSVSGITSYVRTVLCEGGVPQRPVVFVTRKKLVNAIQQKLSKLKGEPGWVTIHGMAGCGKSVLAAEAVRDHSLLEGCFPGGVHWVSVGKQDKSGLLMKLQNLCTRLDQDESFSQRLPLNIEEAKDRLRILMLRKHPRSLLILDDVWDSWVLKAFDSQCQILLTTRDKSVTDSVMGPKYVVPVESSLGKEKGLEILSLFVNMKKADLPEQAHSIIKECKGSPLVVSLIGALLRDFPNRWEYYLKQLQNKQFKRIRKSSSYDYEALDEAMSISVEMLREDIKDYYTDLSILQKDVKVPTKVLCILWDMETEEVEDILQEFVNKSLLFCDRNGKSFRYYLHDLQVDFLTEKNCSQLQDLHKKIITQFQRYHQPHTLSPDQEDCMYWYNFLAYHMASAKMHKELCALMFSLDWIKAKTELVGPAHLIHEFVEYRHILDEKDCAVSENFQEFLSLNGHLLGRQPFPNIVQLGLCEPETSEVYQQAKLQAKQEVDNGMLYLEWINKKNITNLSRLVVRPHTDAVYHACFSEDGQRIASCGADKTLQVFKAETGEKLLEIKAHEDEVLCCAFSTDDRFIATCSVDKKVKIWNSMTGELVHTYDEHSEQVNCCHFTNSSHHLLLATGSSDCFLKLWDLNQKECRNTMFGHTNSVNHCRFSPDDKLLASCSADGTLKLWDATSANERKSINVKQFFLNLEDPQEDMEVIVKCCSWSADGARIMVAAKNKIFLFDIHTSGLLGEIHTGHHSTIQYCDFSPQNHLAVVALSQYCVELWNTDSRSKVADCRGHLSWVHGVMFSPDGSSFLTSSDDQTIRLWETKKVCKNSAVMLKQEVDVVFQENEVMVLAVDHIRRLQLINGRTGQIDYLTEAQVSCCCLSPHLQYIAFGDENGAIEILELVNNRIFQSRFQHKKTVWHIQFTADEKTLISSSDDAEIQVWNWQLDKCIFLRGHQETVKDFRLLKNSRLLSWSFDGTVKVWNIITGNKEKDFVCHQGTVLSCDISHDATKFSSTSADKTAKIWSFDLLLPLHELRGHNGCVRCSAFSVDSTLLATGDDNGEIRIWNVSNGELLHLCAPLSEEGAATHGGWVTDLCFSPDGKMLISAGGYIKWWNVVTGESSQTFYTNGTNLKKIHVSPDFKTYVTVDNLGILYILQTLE
# Sequence of Latent membrane protein 1 (P03230 whole entry): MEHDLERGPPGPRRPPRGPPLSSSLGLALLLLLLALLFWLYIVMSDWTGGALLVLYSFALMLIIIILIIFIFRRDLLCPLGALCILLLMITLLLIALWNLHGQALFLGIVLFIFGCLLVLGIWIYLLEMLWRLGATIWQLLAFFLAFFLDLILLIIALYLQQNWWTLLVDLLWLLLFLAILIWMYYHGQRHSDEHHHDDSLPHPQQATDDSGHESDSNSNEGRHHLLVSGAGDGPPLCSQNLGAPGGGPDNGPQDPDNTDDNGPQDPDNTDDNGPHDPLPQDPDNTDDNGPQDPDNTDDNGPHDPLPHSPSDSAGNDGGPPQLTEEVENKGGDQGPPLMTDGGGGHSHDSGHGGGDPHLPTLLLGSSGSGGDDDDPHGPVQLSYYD
# Sequence of Lysine-specific demethylase 4C (Q9H3R0 whole entry): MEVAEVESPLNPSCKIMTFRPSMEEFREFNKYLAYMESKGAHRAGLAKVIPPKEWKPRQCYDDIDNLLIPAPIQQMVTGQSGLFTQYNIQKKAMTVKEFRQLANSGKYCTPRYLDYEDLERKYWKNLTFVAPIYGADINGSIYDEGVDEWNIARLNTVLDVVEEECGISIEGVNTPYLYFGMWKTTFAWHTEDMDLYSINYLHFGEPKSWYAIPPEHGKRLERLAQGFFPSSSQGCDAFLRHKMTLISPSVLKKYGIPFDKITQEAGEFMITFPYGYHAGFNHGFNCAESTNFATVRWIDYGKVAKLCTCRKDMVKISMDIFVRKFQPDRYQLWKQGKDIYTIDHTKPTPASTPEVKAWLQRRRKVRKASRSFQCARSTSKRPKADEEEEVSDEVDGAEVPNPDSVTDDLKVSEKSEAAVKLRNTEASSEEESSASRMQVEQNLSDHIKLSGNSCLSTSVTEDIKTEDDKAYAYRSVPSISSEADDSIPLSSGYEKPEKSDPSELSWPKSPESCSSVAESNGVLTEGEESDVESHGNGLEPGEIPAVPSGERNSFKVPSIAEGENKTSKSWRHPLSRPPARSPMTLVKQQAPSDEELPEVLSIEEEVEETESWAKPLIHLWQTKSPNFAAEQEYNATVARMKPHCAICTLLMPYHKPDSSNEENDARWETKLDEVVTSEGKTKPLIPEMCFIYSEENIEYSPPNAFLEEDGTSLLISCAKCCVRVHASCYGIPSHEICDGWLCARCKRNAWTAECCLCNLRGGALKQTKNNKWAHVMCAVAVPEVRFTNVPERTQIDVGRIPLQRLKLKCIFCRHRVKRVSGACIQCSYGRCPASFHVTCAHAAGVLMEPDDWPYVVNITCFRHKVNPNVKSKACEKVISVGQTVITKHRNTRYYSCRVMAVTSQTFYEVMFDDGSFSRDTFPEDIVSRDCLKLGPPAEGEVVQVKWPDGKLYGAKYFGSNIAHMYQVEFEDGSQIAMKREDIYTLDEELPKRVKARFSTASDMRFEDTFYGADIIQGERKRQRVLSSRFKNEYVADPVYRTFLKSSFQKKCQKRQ
smiles,measurement,setting,value
C[C@@H]1CN([C@@H](C)CO)C(=O)c2cccc(NC(=O)Nc3cccc4ccccc34)c2O[C@H]1CN(C)S(=O)(=O)c1ccc(Cl)cc1,AC50,[1],44.2 µM (active)
same,AC50,[2],90.1 µM (active)
same,AC50,[3],31.1 µM (active)
same,AC50,[4],> 195 µM (inactive)
same,AC50,[5],41.3 µM (active)
CCCCc1ccc2nc(NC(=O)c3cccs3)sc2c1,IC50,[6],1.5 µM (active)
same,IC50,[7],2.22 µM (active)
same,IC50,[8],4.01 µM (active)
same,IC50,[9],1.9 µM (active)
same,IC50,[10],2.1 µM (active)
same,IC50,[11],2.07 µM (active)
same,IC50,[12],2.04 µM (active)
same,IC50,[13],4.4 µM (active)
Oc1cc(N/N=C/c2ccccc2)nc(O)n1,IC50,[14],20 µM (active)
same,AC50,[15],8.88 µM (active)
Cc1ccc(C(=O)N/N=C/c2c(O)ccc3ccccc23)cn1,EC50,[16],1.59 µM (active)
same,EC50,[17],6.93 µM (active)
same,EC50,[18],13.1 µM (active)
same,EC50,[19],1 µM (active)
same,AC50,[20],9.88 µM (active)
same,IC50,[21],3.96 µM (active)
same,EC50,[22],> 180 µM (inactive)
same,EC50,[23],10.9 µM (active)
same,EC50,[24],10.4 µM (inconclusive)
same,EC50,[25],> 150 µM (inactive)
same,AC50,[26],5.41 µM (active)
same,EC50,[27],> 150 µM (inactive)
same,EC50,[28],2.72 µM (active)
same,EC50,[29],> 350 µM (not active)
same,EC50,[30],803 nM (active)

# Source: ChEMBL document CHEMBL1201862, “PubChem BioAssay data set” (2004)
